Laboratory results taken from patent publication US10473666B2, “Dye compounds” (SFC CO., LTD., priority 2015, dated 2019).

Assays:
[1] = test system: mitochondria, HeLa A431 cells; test: Selectivity for mitochondria: co-localization with MitoTracker Green FM in HeLa A431 cells; assay type: cell-based; settings: dye 0.5 μM
Procedure: The specific selectivity of the compound of Formula 97 for mitochondria was investigated. To this end, HeLa A431 cells were co-localized with the compound of Formula 97 and a commercially available mitochondrial marker (MTG, 0.2 μM MitoTracker Green FM for mitochondria).
OPM images were acquired at 571-650 nm (Formula 97, λex=552 nm) and 498-540 nm (MTG, λex=488 nm) and are shown in FIGS. 6a and 6b, respectively. FIG. 6c is a merged image of FIGS. 6a and 6b. The Pearson's co-localization coefficient (A) was calculated using the LAS AF software. [MTG]=0.2μM for 30 min incubation,λex=488 nm [Formula 97]=0.5μM for 30 min incubation,λex=552 nm

[2] = Characterization as pH probes: fluorescence intensity versus pH; assay type: physicochemical
Excerpt: In addition, the absorption and fluorescence wavelengths of the compound of Formula 97 well match currently available laser lines (488 nm, 532 nm, and 550 nm).
That is, the compound of Formula 111 as a pH probe emitted strong fluorescence at pH 2-6 and the compound of Formula 97 as a pH probe emitted strong fluorescence at pH 8-12.

[3] = Photophysical properties incl. two-photon cross-sections (femtosecond fluorescence measurement technique); assay type: physicochemical
Procedure: All measurements were performed in DMSO, ethanol, and PBS buffer. Two-photon cross-sections (δ) were measured using a femtosecond (fs) fluorescence measurement technique.

[4] = Absorption spectra, emission spectra, molar extinction coefficients and quantum yields of the dye compounds; assay type: physicochemical; settings: Table 6

## CC1(C)C2=C3C=C4C=CC(=O)C=C4OC3CCN2c2ccccc21 (stereo not drawn) [Formula 97]
[1]
  staining selectivity for mitochondria: mitochondria were predominantly stained
[1]; MTG 0.2 μM, 30 min incubation, LAS AF software
  degree of overlapping (A), Pearson's co-localization coefficient with Mitotracker Green FM: 0.74
[2]
  pH at which the pH probe emitted strong fluorescence: 8-12 pH
[2]; pH 1-6
  fluorescence intensity under acidic conditions: decreased
[2]; pH 9-12
  fluorescence intensity under basic conditions: increased
[3]; Buffer (PBS buffer)
  d: Peak two-photon cross-section: 35 10^−50 cm^4s per photon (GM)
  dΦ: Two-photon action cross-section: 22 GM
  Φ: Fluorescence quantum yield: 0.63
  λ^(2)max^abs: Maximum wavelength in two-photon absorption spectrum: 920 nm
  λmax^fl: Maximum wavelength in single-photon emission spectrum: 565 nm
[3]; Buffer (PBS buffer), in M-1cm-1
  eΦ: Molar extinction coefficient × fluorescence quantum yield: 8820
[3]; DMSO
  Φ: Fluorescence quantum yield: 0.94
  λmax^fl: Maximum wavelength in single-photon emission spectrum: 567 nm
[3]; EtOH
  dΦ: Two-photon action cross-section: 14 GM
  λ^(2)max^abs: Maximum wavelength in two-photon absorption spectrum: 720 nm
[4]; solvent DMSO
  Quantum yield: 0.94
  ε (molar extinction coefficient): 35,000 M^−1cm^−1
  λabs: 551 nm
  λem: 568 nm
[4]; solvent EtOH
  Quantum yield: 0.90
  ε (molar extinction coefficient): 47,000 M^−1cm^−1
  λabs: 555 nm
  λem: 567 nm
[4]; solvent PBS
  Quantum yield: 0.63
  ε (molar extinction coefficient): 14,000 M^−1cm^−1
  λabs: 541 nm
  λem: 565 nm
